Data on four compounds can be found in PMC3311015 (Proceedings of the Japan Academy. Series B, Physical and …, 2011).

Each structure is given as a SMILES string. Where two headings read alike, the source gives them in different places.

The conditions of data set [1]: rat; cited from earlier work.
The conditions of data set [2]: rat, in vivo, 10 mg/kg; cited from earlier work.
Data set [3] in a line: in vivo. The data set is classed as in vivo, Male SD rats. The procedure: (§1) Administration of Ket to rats was carried out as previously reported.[9]) Ketamine hydrochloride (Wako Pure Chemicals Co., Ltd., Osaka, Japan) was dissolved in physiological saline ([…]) and then intraperitoneally (i.p.) administered (30 mg·kg^−1) to 7-week-old rats daily for 5 consecutive days. The control animals received only saline (1 mL·kg^−1·day^−1). The rats were used for experiments 4 weeks after cessation of the ketamine or saline treatment.
A solution of MPC (5.0 or 50 mg·kg^−1·3 mL^−1) was prepared in PBS/ethanol/PEG (2.8/0.1/0.1) and was i.p. administered to rats. A heparinized syringe with a 25-gauge needle was used to draw blood (approximately 0.20 mL) from the left jugular vein at 0.083, 0.25, 0.5, 1, 2, and 3 h after administration of MPC (5.0 mg·kg^−1, n = 4), or at 0.083, 0.25, 0.5, 1, and 3 h after administration of MPC (50 mg·kg^−1, n = 5–6). Before administration of either dose of MPC, blood (approximately 0.20 mL) was obtained from each rat and used as the control. The blood was centrifuged at 3,000 g for 10 min at 4℃ to obtain plasma. The plasma was transferred to another tube and stored at −80℃ until it was analyzed.
For determining the plasma concentration of MPC, 2 calibration curves (31.25–250 µM and 200–800 µM) were constructed. Ten microliters of PBS or rat blank plasma was spiked with 10 µL of 31.25–800 µM MPC dissolved in CH3CN and 10 µL of 200 µM I.S. dissolved in CH3CN, and vigorously mixed with 70 µL of CH3CN/MeOH (50/50). In the case of plasma samples from the rats administered MPC, 10 µL of CH3CN was used instead of MPC in CH3CN.
After centrifugation at 2,500 rpm for 5 min, 50 µL of the supernatant was sampled and evaporated in vacuo. The obtained residue was dissolved in 100 µL of the mobile phase, 60 µL (31.25–250 µM) or 20 µL (200–800 µM) of the final solution after filtration with Durapore® (0.2 µm membrane, Millipore K.K., Tokyo, Japan), and was injected into the LC-MS system.
The LC-MS apparatus comprised an Agilent 1200 series HPLC (Agilent Technologies, CA, U.S.A.) and a time of flight (TOF)-MS, JMS-T100 LP AccuTOF LC-Plus, equipped with an electrospray ionization (ESI) source (JEOL Co. Ltd., Tokyo, Japan). The separation column used in this study was TSKgel ODS-80Ts QA (150 mm × 2.0 mm; i.d., 5 µm) (Tosoh Corporation, Tokyo, Japan). For the mobile phase, 0.1% HCO2H in H2O/CH3CN (95/5) was eluted isocratically at 0.16 mL·min^−1. Column temperature was maintained at 40℃. The conditions for ESI-MS detection were as follows: positive ion mode; needle voltage was set at 2,000 V; and the ring lens and orifice 1 and 2 voltages were set at 8, 49, and 4 V, respectively. Nitrogen was used as the nebulizing and desolvating gas, and the pressure was constant at 0.617 MPa. The desolvation chamber and orifice 1 temperatures were 250℃ and 80℃, respectively. The data were obtained using Mass Center software, MS-56010MP (JEOL).
(§2) Pharmacokinetic parameters obtained in the present study were determined by a simplex method analysis or moment analysis. Statistical analyses were performed using a one-way analysis of variance (ANOVA), followed by Bonferroni’s multiple comparison test. A p value below 0.05 was judged as a significant difference.

Data set [4] concerns the target T1, D-amino acid oxidase (DAAO) (Rattus norvegicus, UniProt O35078).
T1 construct: Male SD rats were purchased from Charles River Japan; from tissue; host or cells: whole animal (male SD rats); DAAO activity is attributed to liver and kidney cells
Put plainly: DAAO-inhibitory effect of MPC in vivo (change of plasma D-Trp concentration after MPC pretreatment). More on the design: species or system Male SD rats. Particulars: MPC 50 mg·kg^−1 i.p. 30 min before D-Trp 100 mg·kg^−1 i.p. The protocol: as §1
D-Trp was dissolved in PBS (10 mg·mL^−1) and administered i.p. to control or Ket-treated rats (100 mg·kg^−1; n = 3–5) at 30 min after i.p. administration of MPC (50 mg·kg^−1). A heparinized syringe with a 25-gauge needle was used to draw blood (approximately 0.20 mL) from the left jugular vein 0.5, 1, 1.5, 2, 3, 4, 5, and 6 h after administration of D-Trp. The blood was treated in a similar manner as described in previous paper.[17]) Plasma D-Trp concentration was determined by our previously published HPLC method.[17])
as §2

The nature of data set [5]: in vivo. Details: species or system Male SD rats. Particulars: D-Trp i.p. 100 mg·kg^−1; for AUC / Cmax / k el / half-life: male, SD, rat, in vivo, ip, 100 mg/kg; for AUC: read-out: AUC of plasma D-Trp; for Cmax: read-out: Cmax of plasma D-Trp; for k el: read-out: Ke of plasma D-Trp (converted); for half-life: read-out: t1/2 of plasma D-Trp. The protocol: as §1
[…] A heparinized syringe with a 25-gauge needle was used to draw blood (approximately 0.20 mL) from the left jugular vein 0.5, 1, 1.5, 2, 3, 4, 5, and 6 h after administration of D-Trp. The blood was treated in a similar manner as described in previous paper.[17]) Plasma D-Trp concentration was determined by our previously published HPLC method.[17])
as §2

Data set [6] relates to DAAO. More on the design: method as in PMID 20801337. As to conditions: D-Trp as substrate for DAAO; cited from earlier work.
Where [7] appears, read: Ket-treated rat, with pretreatment of MPC (50 mg·kg^−1).
The mark [8] stands for this setting: Ket-treated rat, without pretreatment of MPC.
The mark [9] stands for this setting: control rat, with pretreatment of MPC (50 mg·kg^−1).
[10] abbreviates: control rat, without pretreatment of MPC.

T1 sequence (O35078 whole entry): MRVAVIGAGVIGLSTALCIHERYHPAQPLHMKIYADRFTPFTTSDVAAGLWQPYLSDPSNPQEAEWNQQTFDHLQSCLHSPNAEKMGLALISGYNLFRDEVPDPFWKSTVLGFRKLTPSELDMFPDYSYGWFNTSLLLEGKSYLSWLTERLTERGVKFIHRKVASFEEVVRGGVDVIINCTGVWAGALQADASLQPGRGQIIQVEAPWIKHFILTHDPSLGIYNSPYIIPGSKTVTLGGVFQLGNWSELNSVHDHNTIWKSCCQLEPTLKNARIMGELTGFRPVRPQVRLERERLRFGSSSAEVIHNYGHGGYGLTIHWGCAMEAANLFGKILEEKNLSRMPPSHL

In the case of `NC1(c2ccccc2Cl)CCCCC1=O` (centres unmarked) [norketamine], the half-life in plasma in data set [1] is 36 to 48 min.
`Cc1cc(C(=O)O)n[nH]1` [MPC, 3-methylpyrazole-5-carboxylic acid]: the “clearance (CL) of plasma MPC” value in data set [2] was 3.67 mL/min/kg; in data set [3] (control rats, i.p. administration, present data), 305 mL/min/kg. The “t1/2 of plasma MPC” value in data set [2] is 335 min. In addition, the “differences in PK parameters (Cmax, t1/2, AUC) of plasma MPC between control and Ket-treated rats” value in data set [3] (MPC i.p. 5.0 mg·kg^−1) is “no remarkable differences”. The “time at which the maximum concentration (Cmax) of plasma MPC was reached” value in data set [3] (MPC i.p. 5.0 mg·kg^−1, Ket-treated rats) is recorded as 0.5 h; in data set [3] (MPC i.p. 5.0 mg·kg^−1, control rats) it was 0.5 h. In addition, in data set [3] (MPC i.p. 50 mg·kg^−1), the “Cmax value of plasma MPC concentration in Ket-treated rats compared with control group” value is on record as “significantly higher”. Also, in data set [3] (MPC i.p. 50 mg·kg^−1, p < 0.01 and p < 0.05), the “plasma MPC concentrations at 5.0 and 15 min in Ket-treated rats compared with control groups” value is “significantly higher”. For the same compound, the half-life in data set [3] (male, SD, rat, in vivo, ip, control rats, i.p. administration, present data, read-out: t1/2 of plasma MPC) worked out at 50.8 min. The figures for the “plasma D-Trp concentrations after MPC pretreatment compared with no pretreatment” value in data set [4] (Ket-treated rats) and in data set [4] (control rats) were “no significant increase” and “significantly higher”, respectively.
Regarding `CNC1(c2ccccc2Cl)CCCCC1=O` (centres unmarked) [ketamine], the half-life in plasma in data set [1] was 30 to 36 min.
`N[C@H](Cc1c[nH]c2ccccc12)C(=O)O` [D-Trp, D-tryptophan]: in data set [5] (setting [7]), the “CL of plasma D-Trp” value was found to be 6.73 ± 1.67 mL/min/kg, the “Vd of plasma D-Trp” value came out at 0.544 ± 0.09 L/kg, the exposure (AUC) is 983 ± 128 µM·h and the Cmax worked out at 608 ± 115 µM. For the same compound, in data set [5] (setting [7]), the k el is 0.0002 s⁻¹ and the half-life came to 60.2 ± 6.1 min. Moreover, in data set [5] (setting [8]), the “CL of plasma D-Trp” value was determined as 11.6 ± 1.83 mL/min/kg, the “Vd of plasma D-Trp” value was found to be 0.703 ± 0.07 L/kg, the AUC worked out at 719 ± 63.6 µM·h and the highest concentration (Cmax) was 587 ± 33.5 µM. For the same compound, in data set [5] (setting [8]), the k el is 0.000269 s⁻¹ and the half-life is 43.7 ± 2.79 min. In data set [5] (setting [9]), the “CL of plasma D-Trp” value stood at 3.05 ± 0.17 mL/min/kg, the “Vd of plasma D-Trp” value stood at 0.237 ± 0.02 L/kg, the area under the curve (AUC) amounted to 2080 ± 138 µM·h and the peak concentration (Cmax) is 1130 ± 75 µM. In addition, in data set [5] (setting [9]), the k el is 0.000214 s⁻¹ and the half-life is 54 ± 0.1 min. Also, in data set [5] (setting [10]), the “CL of plasma D-Trp” value came to 10 ± 0.33 mL/min/kg, the “Vd of plasma D-Trp” value worked out at 0.712 ± 0.04 L/kg, the exposure (AUC) amounted to 693 ± 42.9 µM·h and the Cmax is 567 ± 42.6 µM. For the same compound, in data set [5] (setting [10]), the k el is 0.000236 s⁻¹ and the half-life amounted to 49.1 ± 1.3 min. Besides, in data set [6], the Km was 845 µM.
